Read-outs that look alike come from different tables or passages of the source.
Assays:
[1] = target: T1, human B1R receptor (hB1R) (Homo sapiens, UniProt P46663); assay: FLIPR Ca2+ assay on hB1R-transfected CHO K1 cells, antagonistic action; type: cell-based
T1 construct: host or cells: CHO K1 cells
T1 sequence (P46663 1-353): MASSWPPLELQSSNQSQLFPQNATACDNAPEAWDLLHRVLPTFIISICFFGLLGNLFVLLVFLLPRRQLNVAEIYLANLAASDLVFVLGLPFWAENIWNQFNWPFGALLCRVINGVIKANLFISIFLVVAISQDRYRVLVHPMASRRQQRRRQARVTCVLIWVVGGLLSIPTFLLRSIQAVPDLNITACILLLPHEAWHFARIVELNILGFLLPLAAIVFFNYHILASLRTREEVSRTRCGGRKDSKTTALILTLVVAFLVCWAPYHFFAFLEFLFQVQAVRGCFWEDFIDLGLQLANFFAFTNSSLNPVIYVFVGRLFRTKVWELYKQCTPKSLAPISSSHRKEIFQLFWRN

[2] = target: T2, B1R receptor of the rat (rB1R) (Rattus norvegicus, UniProt P97583); assay: FLIPR Ca2+ assay on rB1R-transfected CHO K1 cells, antagonistic action; type: cell-based
T2 construct: host or cells: CHO K1 cells
T2 sequence (P97583 1-337): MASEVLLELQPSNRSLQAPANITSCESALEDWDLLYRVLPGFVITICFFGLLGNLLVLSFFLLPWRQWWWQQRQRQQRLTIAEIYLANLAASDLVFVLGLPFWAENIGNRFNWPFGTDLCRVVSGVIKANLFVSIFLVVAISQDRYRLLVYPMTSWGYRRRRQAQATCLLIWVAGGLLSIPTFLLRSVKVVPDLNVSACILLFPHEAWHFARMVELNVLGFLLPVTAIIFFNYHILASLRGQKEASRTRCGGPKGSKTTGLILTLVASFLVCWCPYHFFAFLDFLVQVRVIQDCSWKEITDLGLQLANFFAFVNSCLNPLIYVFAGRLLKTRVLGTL

[3] = CHO-K1, 10 μM test substance, agonist Lys-Des-Arg9-bradykinin 0.5 nM, % of maximum achievable inhibition, read-out: hB1R [10 μM] % inhibition
[4] = CHO-K1, 10 μM test substance, agonist Des-Arg9-bradykinin 100 nM, % of maximum achievable inhibition, read-out: rB1R [10 μM] % inhibition

SMILES	inhibition at 10 µM ([1]; CHO-K1, read-out: hB1R [10 μM] % inhibition) [%]	inhibition at 10 µM ([2]; CHO-K1, read-out: rB1R [10 μM] % inhibition) [%]	inhibition at 10 µM [1, 3] [%]	inhibition at 10 µM [2, 4] [%]
CN1CCN(C2(c3cccc(F)c3)CCN(C(=O)COCC3CCCCN3S(=O)(=O)c3ccccc3C(F)(F)F)CC2)CC1 (stereo not drawn) [Compound 225, 1-(4-(3-Fluorophenyl)-4-(4-methylpiperazin-1-yl)piperidin-1-yl)-2-((1-(2-(trifluoromethyl)phenylsulfonyl)piperidin-2-yl)methoxy)ethanone]	100	101	–	–
COc1cc(C)c(S(=O)(=O)N2CCCC(COCC(=O)NC3CCC(Cc4ccccc4)(N4CCCC4)CC3)C2)c(C)c1 (stereo not drawn) [Compound 180, N-(4-benzyl-4-(pyrrolidin-1-yl)cyclohexyl)-2-((1-(4-methoxy-2,6-dimethylphenylsulfonyl)piperidin-3-yl)methoxy)acetamide]	–	–	71	73
O=C(CC1c2ccccc2CCN1S(=O)(=O)c1ccc(Cl)c(Cl)c1)NC1CCC(Cc2ccccc2)(N2CCCCCC2)CC1 (stereo not drawn) [Compound 16, N-(4-(azepan-1-yl)-4-benzylcyclohexyl)-2-(2-(3,4-dichlorophenylsulfonyl)-1,2,3,4-tetrahydroisoquinolin-1-yl)acetamide]	–	–	91	80
COc1cc(C)c(S(=O)(=O)N2CCCC2COCC(=O)N(C)CC2CCC(Cc3ccccc3)(N3CCN(C)CC3)CC2)c(C)c1 (stereo not drawn) [Compound 154, N-((4-benzyl-4-(4-methylpiperazin-1-yl)cyclohexyl)methyl)-2-((1-(4-methoxy-2,6-dimethylphenylsulfonyl)pyrrolidin-2-yl)methoxy)-N-methylacetamide]	–	–	95	101
CN(CCOCC(=O)NC1CCC(c2ccccc2)(N2CCCC2)CC1)S(=O)(=O)c1c(Cl)cc(Cl)cc1Cl (stereo not drawn) [Compound 191, N-(4-phenyl-4-(pyrrolidin-1-yl)cyclohexyl)-2-(2-(2,4,6-trichloro-N-methylphenylsulfonamido)ethoxy)acetamide]	–	–	90	55
COc1cc(C)c(S(=O)(=O)N2CCCCC2COCC(=O)N(C)CCC2CCC(Cc3ccccc3)(N(C)C)CC2)c(C)c1 (stereo not drawn) [Compound 84, N-(2-(4-benzyl-4-(dimethylamino)cyclohexyl)ethyl)-2-((1-(4-methoxy-2,6-dimethylphenylsulfonyl)piperidin-2-yl)methoxy)-N-methylacetamide]	–	–	104	99
Cc1cc(S(=O)(=O)N2CCCCC2CCC(=O)N2CCC(c3ccc(F)cc3)(N3CCN(C)CC3)CC2)c(C)cc1Cl (stereo not drawn) [Compound 138, 3-(1-(4-chloro-2,5-dimethylphenylsulfonyl)piperidin-2-yl)-1-(4-(4-fluorophenyl)-4-(4-methylpiperazin-1-yl)piperidin-1-yl)propan-1-one]	–	–	102	28
COc1cc(C)c(S(=O)(=O)N(C)CCOCC(=O)N(C)CCC2CCC(c3cccnc3)(N(C)C)CC2)c(C)c1 (stereo not drawn) [Compound 207, N-(2-(4-(Dimethylamino)-4-(pyridin-3-yl)cyclohexyl)ethyl)-2-(2-(4-methoxy-N,2,6-trimethylphenylsulfonamido)ethoxy)-N-methylacetamide]	–	–	100	101
CN1CCN(C2(CCc3ccccc3)CCC(CN(C)C(=O)COCC3CCCN3S(=O)(=O)c3c(Cl)cc(Cl)cc3Cl)CC2)CC1 (stereo not drawn) [Compound 172, N-methyl-N-((4-(4-methylpiperazin-1-yl)-4-phenethylcyclohexyl)methyl)-2-((1-(2,4,6-trichlorophenylsulfonyl)pyrrolidin-2-yl)methoxy)acetamide]	–	–	98	79
CN1CCN(C2(c3ccc(F)cc3)CCN(C(=O)COCC3CCc4ccccc4N3S(=O)(=O)c3ccc(Cl)c(Cl)c3)CC2)CC1 (stereo not drawn) [Compound 126, 2-((1-(3,4-dichlorophenylsulfonyl)-1,2,3,4-tetrahydroquinolin-2-yl)methoxy)-1-(4-(4-fluorophenyl)-4-(4-methylpiperazin-1-yl)piperidin-1-yl)ethanone]	–	–	87	55
COc1cc(C)c(S(=O)(=O)N(C)CCOCC(=O)N2CCC(Cc3ccccc3)(N3CCN(C)CC3)C2)c(C)c1 (stereo not drawn) [Compound 197, N-(2-(2-(3-benzyl-3-(4-methylpiperazin-1-yl)pyrrolidin-1-yl)-2-oxoethoxy)ethyl)-4-methoxy-N,2,6-trimethylbenzenesulfonamide]	–	–	98	99
COc1cc(C)c(S(=O)(=O)N2CCCCC2COCC(=O)N(C)CCCC2CCC(Cc3ccccc3)(N3CCCC3)CC2)c(C)c1 (stereo not drawn) [Compound 88, N-(3-(4-benzyl-4-(pyrrolidin-1-yl)cyclohexyl)propyl)-2-((1-(4-methoxy-2,6-dimethylphenylsulfonyl)piperidin-2-yl)methoxy)-N-methylacetamide]	–	–	101	98
COc1cc(C)c(S(=O)(=O)N2c3ccccc3OCC2COCC(=O)N2CCC(c3cccc(F)c3)(N3CCN(C)CC3)CC2)c(C)c1 (stereo not drawn) [Compound 221, 1-(4-(3-Fluorophenyl)-4-(4-methylpiperazin-1-yl)piperidin-1-yl)-2-((4-(4-methoxy-2,6-dimethylphenylsulfonyl)-3,4-dihydro-2H-benzo[b][1,4]oxazin-3-yl)methoxy)ethanone]	–	–	99	99
COc1cc(C)c(S(=O)(=O)N2CCCCC2COCC(=O)N2CCC(c3cccc(F)c3)(N3CCN(C)CC3)CC2)c(C)c1 (stereo not drawn) [Compound 211, 1-(4-(3-Fluorophenyl)-4-(4-methylpiperazin-1-yl)piperidin-1-yl)-2-((1-(4-methoxy-2,6-dimethylphenylsulfonyl)piperidin-2-yl)methoxy)ethanone]	–	–	100	101
COc1cc(C)c(S(=O)(=O)N2CCC(OCC(=O)NC3CCC(Cc4ccccc4)(N4CCCCC4)CC3)C2)c(C)c1 (stereo not drawn) [Compound 18, N-(4-benzyl-4-(piperidin-1-yl)cyclohexyl)-2-(1-(4-methoxy-2,6-dimethylphenylsulfonyl)pyrrolidin-3-yloxy)acetamide]	–	–	68	74
CN(C)C1(CCc2ccccc2)CCC(NC(=O)CC2c3ccccc3CCN2S(=O)(=O)c2ccc(Cl)c(Cl)c2)CC1 (stereo not drawn) [Compound 1, 2-(2-(3,4-dichlorophenylsulfonyl)-1,2,3,4-tetrahydroisoquinolin-1-yl)-N-(4-(dimethylamino)-4-phenethylcyclohexyl)acetamide]	–	–	96	105
COc1cc(C)c(S(=O)(=O)N2CCCC2COCC(=O)NC2CCC(Cc3ccccc3)(N3CCCC3)CC2)c(C)c1 (stereo not drawn) [Compound 151, N-(4-benzyl-4-(pyrrolidin-1-yl)cyclohexyl)-2-((1-(4-methoxy-2,6-dimethylphenylsulfonyl)pyrrolidin-2-yl)methoxy)acetamide]	–	–	90	103
COc1cc(C)c(S(=O)(=O)N2CCCCC2COCC(=O)N(C)CCC2CCC(c3ccccc3)(N3CCCC3)CC2)c(C)c1 (stereo not drawn) [Compound 60, 2-((1-(4-methoxy-2,6-dimethylphenylsulfonyl)piperidin-2-yl)methoxy)-N-methyl-N-(2-(4-phenyl-4-(pyrrolidin-1-yl)cyclohexyl)ethyl)acetamide]	–	–	103	100
